Laboratory results taken from patent EP4691498A1, “ANTIBODY-DRUG CONJUGATE, AND PREPARATION METHOD THEREFOR AND USE THEREOF” (Chengdu Scimount Pharmatech Co., Ltd., priority 2023, dated 2024).
Read-outs that look alike come from different tables or passages of the source.

Tests used:
[1] = Safety evaluation, repeated intravenous infusion (HNSTD); format: in vivo; conditions: monkey HNSTD expressed as eribulin amount
Experimental: Four groups were set up for this test, namely the vehicle control group and SMP-656 groups with different doses (5, 10, 15 mg/kg), with 10 animals in each group, including 5 females and 5 males. Monkeys in each group were intravenously infused (for 30 min) with SMP-656 at doses of 5, 10 and 15 mg/kg at a volume of 10 mL/kg, once every three weeks, for 3 administrations (total 9 weeks), followed by a 4-week recovery period.
During the test, detailed clinical observations, and body weight and food intake monitoring were performed once a week. Clinical pathology examinations (including: hematology, coagulation, serum biochemistry, and urine analysis) were performed on Day 7, Day 50 and Day 71 respectively. The observation of irritation at the administration site was conducted once a week during the administration period, 2-4 h after administration on the administration day, and once a week during the recovery period. For animals with symptoms, the observation frequency was increased to daily until the symptoms disappeared. All surviving animals underwent accompanying toxicokinetic testing on Day 1 and Day 22. At the end of the administration period and the end of the recovery period, all surviving animals were euthanized as planned, dissected and grossly observed, and tissues and organs were weighed or fixed and preserved for pathological examination.

[2] = highest non-severe toxic dose; from literature references 1 and 2; cited from earlier work
[3] = highest non-severe toxic dose; from literature references 1 and 2; cited from earlier work; remark: listed apart in the source

| Compound | Equivalent to eribulin amount [1] [mg/kg] | Monkey HNSTD (mg/kg) [2] | Monkey HNSTD (mg/kg) [3] |
| --- | --- | --- | --- |
| C=C1C[C@@H]2CC[C@@]34C[C@H]5O[C@H]6[C@@H](O3)[C@H]3O[C@H](CC[C@@H]3O[C@H]6[C@H]5O4)CC(=O)C[C@@H]3[C@@H](OC)[C@@H](C[C@H](O)CN)O[C@H]3C[C@H]3O[C@@H](CC[C@@H]1O2)C[C@@H](C)C3=C [Eribulin] | 0.03 | 0.03^2 mg/kg | – |
| MORAb-202: ADC with Eribulin as a small-molecule toxin, set DAR of 4 | 0.12 | – | 6^1 mg/kg |
